This passage reports inhibition, MIC and Activity results from ChEMBL document CHEMBL1671737, “Impact of recA on levofloxacin exposure-related resistance development” (2010).

Calls of active or inactive are those of the source. No cut-off for these calls is given here.

Test [1] has as its system Staphylococcus aureus. The test can be described thus: Bactericidal activity against recA-deficient Staphylococcus aureus ASAU022 assessed as induction of increase bacterial kill rate at 2 times MIC by time kill study. Format: functional, organism-based.
A further test concerns Escherichia coli. The test can be described thus: Antimicrobial activity against recA-deficient Escherichia coli MG1655 after 24 hrs by modified broth macrodilution method. Format: functional. Conditions: MG1655, 24 h.
For test [2], the system named is Staphylococcus aureus. Briefly: Antimicrobial activity against recA-deficient Staphylococcus aureus ASAU022 infected in in vitro hollow fiber infection model assessed as suppression of microbial resistance at AUC/MIC ratio of 31. Format: functional, organism-based.
The subject of test [3] is Staphylococcus aureus. The test can be described thus: Bactericidal activity against recA-deficient Staphylococcus aureus ASAU022 assessed as induction of slow growth rate at 0.5 times MIC by time kill study. Format: functional, organism-based.
The subject of test [4] is Staphylococcus aureus. Briefly: Antimicrobial activity against methicillin-resistant Staphylococcus aureus ASAU021 infected in in vitro hollow fiber infection model assessed as suppression of microbial resistance at AUC/MIC ratio of >32. Format: functional, organism-based.
Test [5] has as its system Staphylococcus aureus. The test can be described thus: Antimicrobial activity against recA-deficient Staphylococcus aureus ASAU022 infected in in vitro hollow fiber infection model assessed as suppression of microbial resistance at AUC/MIC ratio of >23. It is filed as functional, organism-based.
The subject of test [6] is Staphylococcus aureus. The test can be described thus: Antimicrobial activity against methicillin-resistant Staphylococcus aureus ASAU021 after 24 hrs by modified broth macrodilution method. Conditions: ASAU021, 24 h.
Test [7] deals with Staphylococcus aureus. The test can be described thus: Antimicrobial activity against recA-deficient Staphylococcus aureus ASAU022 after 24 hrs by modified broth macrodilution method. Conditions: ASAU022, 24 h.

On to `C[C@H]1COc2c(N3CCN(C)CC3)c(F)cc3c(=O)c(C(=O)O)cn1c23.C[C@H]1COc2c(N3CCN(C)CC3)c(F)cc3c(=O)c(C(=O)O)cn1c23.O` [LEVOFLOXACIN], for which the inhibition result with Staphylococcus aureus [1] and in the test on Staphylococcus aureus [3] was “Active” in each case. For the same compound, the MIC turned out to be 0.004 µg/mL with Escherichia coli, 1 µg/mL in the test with Staphylococcus aureus [6] and 0.25 µg/mL against Staphylococcus aureus [7]. Further, the outcome with Staphylococcus aureus [2], in the test on Staphylococcus aureus [4] and with Staphylococcus aureus [5] was Active.

For orientation: MIC means the least concentration at which growth counts as inhibited.
